# From article PMC3694096, “Development of Novel In Vivo Chemical Probes to Address CNS Protein Kinase Involvement in Synaptic Dysfunction” (PLoS ONE, 2013)
# Like-named read-outs stand apart in the source and are kept apart here.
# Key:
# CaMKIIδ = target: T1, CaMKIIδ (Homo sapiens, UniProt Q13557); test: Kinome profiler screen; type: biochemical; conditions: at 20,000 nM inhibitor; kinase activity remaining
# T1 construct: purchased Millipore KinaseProfiler
# PAK6 = target: T2, PAK6 (Homo sapiens, UniProt Q9NQU5); test: Kinome profiler screen; type: biochemical; conditions: at 20,000 nM inhibitor; kinase activity remaining
# T2 construct: purchased Millipore KinaseProfiler
# [1] = target: T3, PI3 Kinase (p110δ/p85α)(m) (Mus musculus, UniProt O35904); test: Kinome profiler screen; type: biochemical; conditions: at 20,000 nM inhibitor; kinase activity remaining
# T3 construct: purchased Millipore KinaseProfiler
# LOK = target: T4, LOK (Homo sapiens, UniProt O94804); test: Kinome profiler screen; type: biochemical; conditions: for activity at 20 µM: at 20,000 nM inhibitor, kinase activity remaining
# T4 construct: purchased Millipore
# T4 sequence (O94804 whole entry): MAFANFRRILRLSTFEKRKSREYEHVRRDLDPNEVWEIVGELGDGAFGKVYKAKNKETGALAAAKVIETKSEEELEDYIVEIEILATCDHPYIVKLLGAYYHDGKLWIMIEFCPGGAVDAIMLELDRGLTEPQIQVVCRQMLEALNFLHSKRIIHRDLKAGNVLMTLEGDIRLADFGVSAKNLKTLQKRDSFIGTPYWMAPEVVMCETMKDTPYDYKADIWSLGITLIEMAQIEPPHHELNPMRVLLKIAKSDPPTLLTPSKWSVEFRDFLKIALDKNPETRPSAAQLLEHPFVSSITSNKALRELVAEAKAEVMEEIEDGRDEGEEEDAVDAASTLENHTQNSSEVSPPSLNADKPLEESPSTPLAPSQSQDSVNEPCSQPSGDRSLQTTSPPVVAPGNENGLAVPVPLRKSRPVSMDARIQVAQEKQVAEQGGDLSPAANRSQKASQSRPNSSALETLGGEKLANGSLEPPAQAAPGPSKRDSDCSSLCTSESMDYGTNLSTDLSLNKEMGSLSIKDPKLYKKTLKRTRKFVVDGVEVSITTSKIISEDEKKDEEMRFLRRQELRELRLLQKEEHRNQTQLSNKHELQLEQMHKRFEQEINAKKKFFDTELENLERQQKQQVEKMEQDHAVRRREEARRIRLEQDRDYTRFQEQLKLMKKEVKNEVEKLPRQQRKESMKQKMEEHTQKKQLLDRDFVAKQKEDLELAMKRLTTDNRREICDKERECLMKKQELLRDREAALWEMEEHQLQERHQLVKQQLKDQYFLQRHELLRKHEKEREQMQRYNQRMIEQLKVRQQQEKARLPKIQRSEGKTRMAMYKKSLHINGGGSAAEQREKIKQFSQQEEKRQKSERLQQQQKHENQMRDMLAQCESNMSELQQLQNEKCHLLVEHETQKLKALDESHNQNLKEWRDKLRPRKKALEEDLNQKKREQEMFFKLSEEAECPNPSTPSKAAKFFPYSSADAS
# [2] = tested on: sensory perception of electric shock; test: Sensory threshold assessment; type: in vivo, C57BL/6J mice; conditions: control test
# EphB4 = target: T5, EphB4 (Homo sapiens, UniProt P54760); test: Kinome profiler screen; type: biochemical; conditions: at 20,000 nM inhibitor; kinase activity remaining
# T5 construct: purchased Millipore KinaseProfiler
# PI3K-C2γ = target: T6, PI3K-C2γ (Homo sapiens, UniProt O75747); test: Kinome profiler screen; type: biochemical; conditions: at 20,000 nM inhibitor; kinase activity remaining
# T6 construct: purchased Millipore KinaseProfiler
# PAR-1Bα = target: T7, PAR-1Bα (Homo sapiens, UniProt Q7KZI7); test: Kinome profiler screen; type: biochemical; conditions: at 20,000 nM inhibitor; kinase activity remaining
# T7 construct: purchased Millipore KinaseProfiler
# T7 sequence (Q7KZI7 1-725 isoform Q7KZI7-4): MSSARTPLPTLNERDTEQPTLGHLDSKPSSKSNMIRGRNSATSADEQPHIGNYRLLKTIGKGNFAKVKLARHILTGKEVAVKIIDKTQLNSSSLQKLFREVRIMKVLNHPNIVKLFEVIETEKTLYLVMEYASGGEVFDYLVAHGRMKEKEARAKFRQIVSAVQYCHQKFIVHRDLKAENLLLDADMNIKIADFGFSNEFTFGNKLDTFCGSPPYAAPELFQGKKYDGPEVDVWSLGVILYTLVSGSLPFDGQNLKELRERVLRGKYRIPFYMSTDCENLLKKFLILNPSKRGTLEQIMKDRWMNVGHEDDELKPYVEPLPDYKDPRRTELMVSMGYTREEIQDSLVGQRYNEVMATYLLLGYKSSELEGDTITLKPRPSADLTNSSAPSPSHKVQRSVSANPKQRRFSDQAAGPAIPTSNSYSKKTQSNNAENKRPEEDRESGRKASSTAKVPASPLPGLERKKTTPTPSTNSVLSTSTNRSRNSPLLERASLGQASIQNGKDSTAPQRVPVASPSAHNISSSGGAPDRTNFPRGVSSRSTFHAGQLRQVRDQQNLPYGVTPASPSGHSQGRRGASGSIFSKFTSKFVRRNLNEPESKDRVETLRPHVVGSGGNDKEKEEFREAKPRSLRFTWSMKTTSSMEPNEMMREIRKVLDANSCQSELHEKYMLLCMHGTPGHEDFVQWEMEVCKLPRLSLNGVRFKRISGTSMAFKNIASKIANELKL
# JAK2 = target: T8, JAK2 (Homo sapiens, UniProt O60674); test: Kinome profiler screen; type: biochemical; conditions: at 20,000 nM inhibitor; kinase activity remaining
# T8 construct: purchased Millipore KinaseProfiler
# Met = target: T9, Met (Homo sapiens, UniProt P08581); test: Kinome profiler screen; type: biochemical; conditions: at 20,000 nM inhibitor; kinase activity remaining
# T9 construct: purchased Millipore KinaseProfiler
# cKit(V560G) = target: T10, cKit(V560G) (Homo sapiens, UniProt P10721, V560G); test: Kinome profiler screen; type: biochemical; conditions: at 20,000 nM inhibitor; kinase activity remaining
# T10 construct: purchased Millipore KinaseProfiler
# Haspin = target: T11, Haspin (Homo sapiens, UniProt Q8TF76); test: Kinome profiler screen; type: biochemical; conditions: at 20,000 nM inhibitor; kinase activity remaining
# T11 construct: purchased Millipore KinaseProfiler
# Lyn = target: T12, Lyn (Homo sapiens, UniProt P07948); test: Kinome profiler screen; type: biochemical; conditions: at 20,000 nM inhibitor; kinase activity remaining
# T12 construct: purchased Millipore KinaseProfiler
# ALK4 = target: T13, ALK4 (Homo sapiens, UniProt P36896); test: Kinome profiler screen; type: biochemical; conditions: at 20,000 nM inhibitor; kinase activity remaining
# T13 construct: purchased Millipore KinaseProfiler
# Flt4 = target: T14, Flt4 (Homo sapiens, UniProt P35916); test: Kinome profiler screen; type: biochemical; conditions: for activity at 20 µM: at 20,000 nM inhibitor, kinase activity remaining
# T14 construct: purchased Millipore
# T14 sequence (P35916 25-1363): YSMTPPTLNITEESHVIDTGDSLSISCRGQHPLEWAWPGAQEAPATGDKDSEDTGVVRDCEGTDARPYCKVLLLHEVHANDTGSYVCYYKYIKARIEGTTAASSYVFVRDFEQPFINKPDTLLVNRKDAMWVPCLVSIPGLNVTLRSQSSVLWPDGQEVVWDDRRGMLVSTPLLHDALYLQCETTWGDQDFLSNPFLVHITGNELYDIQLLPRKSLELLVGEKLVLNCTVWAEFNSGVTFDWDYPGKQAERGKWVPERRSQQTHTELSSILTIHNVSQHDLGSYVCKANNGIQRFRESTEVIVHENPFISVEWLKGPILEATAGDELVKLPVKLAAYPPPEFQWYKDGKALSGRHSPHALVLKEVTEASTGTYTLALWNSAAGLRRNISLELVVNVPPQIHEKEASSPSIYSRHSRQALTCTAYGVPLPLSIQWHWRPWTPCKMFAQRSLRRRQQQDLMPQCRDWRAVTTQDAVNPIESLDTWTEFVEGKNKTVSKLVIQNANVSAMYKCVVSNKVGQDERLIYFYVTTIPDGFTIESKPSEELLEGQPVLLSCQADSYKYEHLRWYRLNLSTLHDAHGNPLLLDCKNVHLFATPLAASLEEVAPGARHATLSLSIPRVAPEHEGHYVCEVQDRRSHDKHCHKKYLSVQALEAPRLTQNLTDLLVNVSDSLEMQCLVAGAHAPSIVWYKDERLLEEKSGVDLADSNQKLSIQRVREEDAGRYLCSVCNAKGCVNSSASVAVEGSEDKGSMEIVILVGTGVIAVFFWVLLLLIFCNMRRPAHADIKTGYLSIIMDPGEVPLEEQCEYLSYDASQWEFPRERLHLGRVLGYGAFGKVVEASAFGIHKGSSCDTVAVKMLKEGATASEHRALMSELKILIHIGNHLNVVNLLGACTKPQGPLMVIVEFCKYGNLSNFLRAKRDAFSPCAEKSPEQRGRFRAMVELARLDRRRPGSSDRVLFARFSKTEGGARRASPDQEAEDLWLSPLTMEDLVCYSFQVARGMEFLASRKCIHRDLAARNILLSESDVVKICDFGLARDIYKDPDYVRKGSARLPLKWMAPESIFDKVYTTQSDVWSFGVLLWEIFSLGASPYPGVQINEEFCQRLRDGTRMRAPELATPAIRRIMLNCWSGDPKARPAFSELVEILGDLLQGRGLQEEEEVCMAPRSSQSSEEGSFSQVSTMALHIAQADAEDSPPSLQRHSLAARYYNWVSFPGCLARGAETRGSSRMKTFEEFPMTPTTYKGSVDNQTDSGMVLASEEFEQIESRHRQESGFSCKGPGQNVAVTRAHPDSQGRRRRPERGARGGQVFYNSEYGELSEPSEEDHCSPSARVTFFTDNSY
# Rse = target: T15, Rse (Homo sapiens, UniProt Q06418); test: Kinome profiler screen; type: biochemical; conditions: at 20,000 nM inhibitor; kinase activity remaining
# T15 construct: purchased Millipore KinaseProfiler
# ZIPK = target: T16, ZIPK (Homo sapiens, UniProt O43293); test: Kinome profiler screen; type: biochemical; conditions: at 20,000 nM inhibitor; kinase activity remaining
# T16 construct: purchased Millipore KinaseProfiler
# T16 sequence (O43293 whole entry): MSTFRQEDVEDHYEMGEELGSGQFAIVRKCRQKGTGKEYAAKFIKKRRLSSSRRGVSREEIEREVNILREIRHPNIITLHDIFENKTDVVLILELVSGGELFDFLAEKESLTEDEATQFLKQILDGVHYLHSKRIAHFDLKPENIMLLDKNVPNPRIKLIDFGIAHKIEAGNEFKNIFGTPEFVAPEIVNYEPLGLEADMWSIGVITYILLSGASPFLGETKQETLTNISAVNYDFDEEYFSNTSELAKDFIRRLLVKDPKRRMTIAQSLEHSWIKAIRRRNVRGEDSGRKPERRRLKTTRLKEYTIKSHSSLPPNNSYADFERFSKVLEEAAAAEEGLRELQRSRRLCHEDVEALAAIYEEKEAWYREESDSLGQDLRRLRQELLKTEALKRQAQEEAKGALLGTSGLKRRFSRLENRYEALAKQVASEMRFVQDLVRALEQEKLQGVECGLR
# Met(M1268T) = target: T17, Met(M1268T) (Homo sapiens, UniProt P08581, M1250T); test: Kinome profiler screen; type: biochemical; conditions: at 20,000 nM inhibitor; kinase activity remaining
# T17 construct: purchased Millipore KinaseProfiler
# Blk(m) = target: T18, Blk(m) (Mus musculus, UniProt P16277); test: Kinome profiler screen; type: biochemical; conditions: at 20,000 nM inhibitor; kinase activity remaining
# T18 construct: purchased Millipore KinaseProfiler
# ULK2 = target: T19, ULK2 (Homo sapiens, UniProt Q8IYT8); test: Kinome profiler screen; type: biochemical; conditions: at 20,000 nM inhibitor; kinase activity remaining
# T19 construct: purchased Millipore KinaseProfiler
# Pim-3 = target: T20, Pim-3 (Homo sapiens, UniProt Q86V86); test: Kinome profiler screen; type: biochemical; conditions: at 20,000 nM inhibitor; kinase activity remaining
# T20 construct: purchased Millipore KinaseProfiler
# PAK4 = target: T21, PAK4 (Homo sapiens, UniProt O96013); test: Kinome profiler screen; type: biochemical; conditions: at 20,000 nM inhibitor; kinase activity remaining
# T21 construct: purchased Millipore KinaseProfiler
# Aurora-A = target: T22, Aurora-A (Homo sapiens, UniProt O14965); test: Kinome profiler screen; type: biochemical; conditions: at 20,000 nM inhibitor; kinase activity remaining
# T22 construct: purchased Millipore KinaseProfiler
# PAK3 = target: T23, PAK3 (Homo sapiens, UniProt O75914); test: Kinome profiler screen; type: biochemical; conditions: at 20,000 nM inhibitor; kinase activity remaining
# T23 construct: purchased Millipore KinaseProfiler
# Ret (V804L) = target: T24, Ret (V804L) (Homo sapiens, UniProt P07949, V804L); test: Kinome profiler screen; type: biochemical; conditions: at 20,000 nM inhibitor; kinase activity remaining
# T24 construct: purchased Millipore KinaseProfiler
# Abl (H396P) = target: T25, Abl (H396P) (Homo sapiens, UniProt P00519, H396P); test: Kinome profiler screen; type: biochemical; conditions: at 20,000 nM inhibitor; kinase activity remaining
# T25 construct: purchased Millipore KinaseProfiler
# ROCK-II = target: T26, ROCK-II (Homo sapiens, UniProt O75116); test: Kinome profiler screen; type: biochemical; conditions: at 20,000 nM inhibitor; kinase activity remaining
# T26 construct: purchased Millipore KinaseProfiler
# T26 sequence (O75116 whole entry): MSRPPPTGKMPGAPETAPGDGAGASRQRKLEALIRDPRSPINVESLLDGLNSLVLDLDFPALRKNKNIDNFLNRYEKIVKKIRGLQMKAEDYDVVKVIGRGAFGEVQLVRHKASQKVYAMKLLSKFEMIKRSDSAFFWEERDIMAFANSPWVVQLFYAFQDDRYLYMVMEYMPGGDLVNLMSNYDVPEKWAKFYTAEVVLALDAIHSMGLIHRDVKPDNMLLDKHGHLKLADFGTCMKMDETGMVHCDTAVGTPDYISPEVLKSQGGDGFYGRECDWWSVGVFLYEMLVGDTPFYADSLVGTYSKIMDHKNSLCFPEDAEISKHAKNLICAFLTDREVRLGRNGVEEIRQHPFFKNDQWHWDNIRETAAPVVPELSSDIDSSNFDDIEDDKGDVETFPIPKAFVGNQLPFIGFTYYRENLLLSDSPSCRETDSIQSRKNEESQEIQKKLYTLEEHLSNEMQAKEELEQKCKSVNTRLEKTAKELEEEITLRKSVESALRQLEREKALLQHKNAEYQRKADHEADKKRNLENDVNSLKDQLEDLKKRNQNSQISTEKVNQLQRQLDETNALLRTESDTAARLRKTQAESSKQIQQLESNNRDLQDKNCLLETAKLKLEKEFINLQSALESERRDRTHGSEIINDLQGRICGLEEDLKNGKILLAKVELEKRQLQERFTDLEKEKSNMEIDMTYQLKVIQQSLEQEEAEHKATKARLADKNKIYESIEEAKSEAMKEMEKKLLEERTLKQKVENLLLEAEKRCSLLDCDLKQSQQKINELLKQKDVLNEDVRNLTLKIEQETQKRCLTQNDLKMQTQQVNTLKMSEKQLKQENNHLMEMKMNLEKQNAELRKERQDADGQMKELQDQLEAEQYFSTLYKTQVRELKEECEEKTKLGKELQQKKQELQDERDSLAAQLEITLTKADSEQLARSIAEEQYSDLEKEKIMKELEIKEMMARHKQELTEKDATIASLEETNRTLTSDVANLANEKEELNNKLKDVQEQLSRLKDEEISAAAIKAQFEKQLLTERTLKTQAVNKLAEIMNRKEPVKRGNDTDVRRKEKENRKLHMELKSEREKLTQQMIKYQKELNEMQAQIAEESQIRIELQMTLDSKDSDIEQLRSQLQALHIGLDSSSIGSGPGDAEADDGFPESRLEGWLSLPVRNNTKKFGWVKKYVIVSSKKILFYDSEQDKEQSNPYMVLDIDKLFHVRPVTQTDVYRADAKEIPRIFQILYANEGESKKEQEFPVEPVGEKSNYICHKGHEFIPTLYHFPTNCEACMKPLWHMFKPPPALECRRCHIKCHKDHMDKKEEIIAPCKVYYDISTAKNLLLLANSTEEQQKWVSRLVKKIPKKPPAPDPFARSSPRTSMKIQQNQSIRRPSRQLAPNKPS
# DDR2 = target: T27, DDR2 (Homo sapiens, UniProt Q16832); test: Kinome profiler screen; type: biochemical
# T27 construct: purchased Millipore
# T27 sequence (Q16832 22-855): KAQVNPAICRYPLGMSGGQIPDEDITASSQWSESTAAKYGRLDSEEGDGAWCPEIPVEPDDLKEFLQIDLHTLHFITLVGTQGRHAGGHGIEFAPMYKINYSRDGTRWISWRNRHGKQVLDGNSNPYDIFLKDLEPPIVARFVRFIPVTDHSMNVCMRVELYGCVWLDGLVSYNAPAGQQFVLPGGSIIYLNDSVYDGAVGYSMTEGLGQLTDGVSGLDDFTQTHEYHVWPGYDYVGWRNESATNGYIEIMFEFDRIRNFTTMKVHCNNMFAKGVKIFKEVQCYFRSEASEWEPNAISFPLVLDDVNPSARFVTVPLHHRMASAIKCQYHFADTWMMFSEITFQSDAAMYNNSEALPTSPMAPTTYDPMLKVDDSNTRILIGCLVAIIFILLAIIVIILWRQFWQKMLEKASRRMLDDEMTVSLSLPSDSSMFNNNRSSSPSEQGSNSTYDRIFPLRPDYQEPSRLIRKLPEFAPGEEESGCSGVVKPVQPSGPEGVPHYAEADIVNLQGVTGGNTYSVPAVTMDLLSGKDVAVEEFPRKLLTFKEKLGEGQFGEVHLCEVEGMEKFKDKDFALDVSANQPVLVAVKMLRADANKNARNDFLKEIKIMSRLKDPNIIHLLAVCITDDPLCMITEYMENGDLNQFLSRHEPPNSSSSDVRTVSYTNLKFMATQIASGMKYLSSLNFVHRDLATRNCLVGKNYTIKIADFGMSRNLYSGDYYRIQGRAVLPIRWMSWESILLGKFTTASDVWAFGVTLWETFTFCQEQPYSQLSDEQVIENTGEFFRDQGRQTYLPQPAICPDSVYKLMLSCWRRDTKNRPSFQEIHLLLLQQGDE
# MuSK = target: T28, MuSK (Homo sapiens, UniProt O15146); test: Kinome profiler screen; type: biochemical; conditions: at 20,000 nM inhibitor; kinase activity remaining
# T28 construct: purchased Millipore KinaseProfiler
# PKCα = target: T29, PKCα (Homo sapiens, UniProt P17252); test: Kinome profiler screen; type: biochemical; conditions: at 20,000 nM inhibitor; kinase activity remaining
# T29 construct: purchased Millipore KinaseProfiler
# MAPK1 = target: T30, MAPK1 (Homo sapiens, UniProt P27361); test: Kinome profiler screen; type: biochemical; conditions: at 20,000 nM inhibitor; kinase activity remaining
# T30 construct: purchased Millipore KinaseProfiler
# PAK2 = target: T31, PAK2 (Homo sapiens, UniProt Q13177); test: Kinome profiler screen; type: biochemical; conditions: at 20,000 nM inhibitor; kinase activity remaining
# T31 construct: purchased Millipore KinaseProfiler
SMILES,activity at 20 µM (CaMKIIδ) [%],activity at 20 µM (PAK6) [%],activity at 20 µM [1] [%],activity at 20 µM (LOK) [%],sensory threshold [2],activity at 20 µM (EphB4) [%],activity at 20 µM (PI3K-C2γ) [%],activity at 20 µM (PAR-1Bα) [%],activity at 20 µM (JAK2) [%],activity at 20 µM (Met) [%],activity at 20 µM (cKit(V560G)) [%],activity at 20 µM (Haspin) [%],activity at 20 µM (Lyn) [%],activity at 20 µM (ALK4) [%],activity at 20 µM (Flt4) [%],activity at 20 µM (Rse) [%],activity at 20 µM (ZIPK) [%],activity at 20 µM (Met(M1268T)) [%],activity at 20 µM (Blk(m)) [%],activity at 20 µM (ULK2) [%],other results
"CN(C)c1cc(-c2ccncc2)c(-c2cccc3ccccc23)nn1 [MW181, N,N-dimethyl-6-(naphthalen-1-yl)-5-(pyridin-4-yl)pyridazin-3-amine]",106,101,101,84,Sensory threshold was not affected regardless of treatment,100,97,106,111,112,71,93,93,101,98,109,106,95,100,101,"activity at 20 µM (Pim-3): 106%; activity at 20 µM (PAK4): 109%; activity at 20 µM (Aurora-A): 113%; activity at 20 µM (PAK3): 122%; activity at 20 µM (Ret (V804L)): 102%; activity at 20 µM (Abl (H396P)): 101%; activity at 20 µM (ROCK-II): 108%; activity at 20 µM (DDR2; at 20,000 nM inhibitor, kinase activity remaining, read-out: % Activity): 86%; activity at 20 µM (MuSK): 102%; activity at 20 µM (PKCα): 86%; activity at 20 µM (MAPK1): 90%; activity at 20 µM (PAK2): 101%"
"CN(C)c1cc(-c2ccncc2)c(-c2ccc3ccccc3c2)nn1 [MW108, N, N-dimethyl-6-(naphthalen-2-yl)-5-(pyridin-4-yl)pyridazin-3-amine]",100,99,100,48,Sensory threshold was not affected regardless of treatment,54,50,97,98,118,95,87,100,95,11,117,93,91,88,100,IC50 (LOK): > 30 µM; IC50 (Flt4): 4.91 µM; activity at 20 µM (Pim-3): 105%; activity at 20 µM (PAK4): 104%; activity at 20 µM (Aurora-A): 118%; activity at 20 µM (PAK3): 78%; activity at 20 µM (Ret (V804L)): 102%; activity at 20 µM (Abl (H396P)): 94%; activity at 20 µM (ROCK-II): 99%; IC50 (DDR2): 2.86 µM; activity at 20 µM (DDR2): 11%; activity at 20 µM (MuSK): 104%; activity at 20 µM (PKCα): 92%; activity at 20 µM (MAPK1): 82%; activity at 20 µM (PAK2): 103%
